One assay has as its system KB. Kind of assay: Cytotoxicity against human KB cells. The class given is functional. The following applies: read-out: ED50 (the source's name).
In the next assay the test system is P388. Kind of assay: Antileukemic activity against mouse P388 cells […] in BDF1 mouse at 8 mg/kg. The class given is functional.

SMILES strings stand for the structures. Converted amounts (≈) assume the structure as drawn.

Broadly, the T/C is the ratio of treated to control.

With `CC(C)=C1C(=O)O[C@@H]2C[C@@H](C)[C@]3(O)C=CC(=O)[C@@H]3C[C@H]12` [MICROHELENIN E], the EC50 in the assay on KB was determined as 1.38 µg/mL (≈ 4.99 µM). In the assay on P388, this molecule displayed a T/C of 166%.

Consider `CC(C)=C1C(=O)O[C@@H]2C[C@@H](C)[C@@H]3C=CC(=O)[C@]3(O)C[C@H]12` [MICROHELENIN F], for which the EC50 in the assay with KB amounted to 11 µg/mL (≈ 39.8 µM). The T/C in the assay with P388 was determined as 116%.

The values are drawn from ChEMBL document CHEMBL1151389, “Antitumor agents 57. The isolation and structural elucidation of microhelenin-E, a new antileukemic nor-pseudoguaianolide, and microhelenin-F from Helenium microcephalum” (1982).
